Measurements published in PubChem BioAssay AID328 (DTP/NCI, 2004).
Where “and” joins values, the source holds several entries; their conditions need not be identical. Identical values can stand only once. Inconclusive results and toxic doses are left out. How the source made its calls: active means survival T/C of 150% or more; inactive means T/C below 125% in these data.

Test system: BDF1 mice, P388 leukemia ip, median survival T/C
Test: NCI In Vivo Anticancer Drug Screen. Data for tumor model P388 Leukemia (intraperitoneal) in B6D2F1 (BDF1) mice
Conditions: endpoint: median survival time, higher = longer survival
In short: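 Reported as T/C, where T is the survival measurement in dosed animals and C the same measurement in vehicle controls.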

[1] = dose: 100.0 mg/kg/injection, schedule: Q01DX009 (ip), vehicle: Klucel (hydroxypropylcellulose) (HPC)
[2] = dose: 100.0 mg/kg/injection, schedule: Q04DX003 (ip), vehicle: Klucel (hydroxypropylcellulose) (HPC)
[3] = dose: 200.0 mg/kg/injection, schedule: Q01DX009 (ip), vehicle: Klucel (hydroxypropylcellulose) (HPC)
[4] = dose: 200.0 mg/kg/injection, schedule: Q04DX003 (ip), vehicle: Klucel (hydroxypropylcellulose) (HPC)
[5] = dose: 400.0 mg/kg/injection, schedule: Q01DX009 (ip), vehicle: Klucel (hydroxypropylcellulose) (HPC)
[6] = dose: 400.0 mg/kg/injection, schedule: Q04DX003 (ip), vehicle: Klucel (hydroxypropylcellulose) (HPC)
[7] = dose: 12.5 mg/kg/injection, schedule: Q01DX009 (ip), vehicle: Klucel (hydroxypropylcellulose) (HPC)
[8] = dose: 25.0 mg/kg/injection, schedule: Q01DX009 (ip), vehicle: Klucel (hydroxypropylcellulose) (HPC)
[9] = dose: 50.0 mg/kg/injection, schedule: Q01DX009 (ip), vehicle: Klucel (hydroxypropylcellulose) (HPC)
[10] = dose: 100.0 mg/kg/injection, schedule: Q01DX001 (ip), vehicle: saline with Tween-80
[11] = dose: 200.0 mg/kg/injection, schedule: Q01DX001 (ip), vehicle: saline with Tween-80
[12] = dose: 100.0 mg/kg/injection, schedule: Q04DX003 (ip), vehicle: saline with Tween-80
[13] = dose: 200.0 mg/kg/injection, schedule: Q04DX003 (ip), vehicle: saline with Tween-80
[14] = dose: 400.0 mg/kg/injection, schedule: Q04DX003 (ip), vehicle: saline with Tween-80
[15] = dose: 100.0 mg/kg/injection, schedule: Q01DX009 (ip), vehicle: saline with Tween-80
[16] = dose: 400.0 mg/kg/injection, schedule: Q01DX009 (ip), vehicle: saline with Tween-80

Measured: T/C

O=Nc1ccc(O)c(=O)cc1
inactive: dose: 1.0 mg/kg/injection, schedule: Q01DX009 (ip), vehicle: saline with Tween-80 109 % of control | dose: 1.0 mg/kg/injection, schedule: Q04DX003 (ip), vehicle: saline 104 % of control | dose: 2.0 mg/kg/injection, schedule: Q01DX009 (ip), vehicle: saline with Tween-80 109 % of control | dose: 2.0 mg/kg/injection, schedule: Q04DX003 (ip), vehicle: saline 104 % of control | dose: 4.0 mg/kg/injection, schedule: Q01DX009 (ip), vehicle: saline with Tween-80 90 % of control | dose: 4.0 mg/kg/injection, schedule: Q04DX003 (ip), vehicle: saline 116 % of control

Nc1ccc(C(=O)Nc2ccc(Nc3ccncc3)cc2)cc1
inactive: [1] 109 % of control | [2] 104 % of control | [3] 118 % of control | [4] 104 % of control | [5] 118 % of control | [6] 100 % of control

C=C(C)C12OC3(c4ccccc4)OC1C1C4OC4(CO)C(O)C4(O)C(=O)C(C)=CC4C1(O3)C(C)C2O (stereo unspecified)
inactive: dose: 25.0 micrograms/kg/injection, schedule: Q01DX009 (ip), vehicle: saline + alcohol 95 % of control and 102 % of control | dose: 50.0 micrograms/kg/injection, schedule: Q01DX009 (ip), vehicle: saline + alcohol 93 % of control | dose: 100.0 micrograms/kg/injection, schedule: Q01DX009 (ip), vehicle: saline + alcohol 107 % of control | dose: 200.0 micrograms/kg/injection, schedule: Q01DX009 (ip), vehicle: saline + alcohol 103 % of control and 110 % of control | dose: 800.0 micrograms/kg/injection, schedule: Q01DX009 (ip), vehicle: saline + alcohol 116 % of control | dose: 1600.0 micrograms/kg/injection, schedule: Q01DX009 (ip), vehicle: saline + alcohol 106 % of control

CSC1CCCC(=O)C1 (stereo unspecified)
inactive: [7] 100 % of control | [8] 105 % of control | [2] 100 % of control | [4] 95 % of control | [6] 90 % of control

C[C@]12C=CC(=O)C=C1CC[C@H]1[C@@H]3C[C@@H](O)[C@](O)(C(=O)CO)[C@@]3(C)C[C@H](O)[C@@]12F
inactive: [9] 100 % of control | dose: 132.0 mg/kg/injection, schedule: Q01DX009 (ip), vehicle: Klucel (hydroxypropylcellulose) (HPC) 118 % of control | [3] 113 % of control

COc1cc(/C=C\C(=O)c2ccc(F)cc2)cc(OC)c1OC
inactive: [10] 98 % of control | [11] 96 % of control | dose: 400.0 mg/kg/injection, schedule: Q01DX001 (ip), vehicle: saline with Tween-80 100 % of control

CC(O)c1ccc(-c2ccccc2)cc1 (stereo unspecified)
inactive: [1] 120 % of control | [2] 95 % of control | [3] 105 % of control | [4] 100 % of control | [5] 110 % of control | [6] 100 % of control

OC(CCCCC(O)(c1ccccc1)c1ccccc1)(c1ccccc1)c1ccccc1
inactive: dose: 100.0 mg/kg/injection, schedule: Q01DX001 (ip), vehicle: Klucel (hydroxypropylcellulose) (HPC) 105 % of control | dose: 200.0 mg/kg/injection, schedule: Q01DX001 (ip), vehicle: Klucel (hydroxypropylcellulose) (HPC) 115 % of control | dose: 400.0 mg/kg/injection, schedule: Q01DX001 (ip), vehicle: Klucel (hydroxypropylcellulose) (HPC) 100 % of control

CCOC(=O)C(=CN1CCCCCC1)C(=O)OCC
inactive: [12] 109 % of control | [13] 109 % of control | [14] 113 % of control

C=C(C)c1c2ccccc2cc2cccc(Sc3ccccc3)c12
inactive: [15] 100 % of control | dose: 200.0 mg/kg/injection, schedule: Q01DX009 (ip), vehicle: saline with Tween-80 95 % of control | [16] 100 % of control

NNC(=O)c1ccc(Cl)cc1Nc1cccc(Cl)c1
inactive: dose: 50.0 mg/kg/injection, schedule: Q01DX001 (ip), vehicle: saline with Tween-80 100 % of control | [10] 100 % of control | [11] 104 % of control

COc1cc2oc3c(c(=O)c2c(O)c1/C=C/C(C)C)CCC(C)(C)Oc1cc(O)ccc1-3
inactive: dose: 3.13 mg/kg/injection, schedule: Q01DX009 (ip), vehicle: Klucel (hydroxypropylcellulose) (HPC) 96 % of control | dose: 6.25 mg/kg/injection, schedule: Q01DX009 (ip), vehicle: Klucel (hydroxypropylcellulose) (HPC) 94 % of control | [7] 94 % of control | [8] 103 % of control

[O-][n+]1c(CCl)nc2ccccc2c1-c1ccccc1F
inactive: dose: 50.0 mg/kg/injection, schedule: Q01DX009 (ip), vehicle: saline with Tween-80 118 % of control | [15] 105 % of control

CN(C)NCCC#N
inactive: dose: 50.0 mg/kg/injection, schedule: Q01DX009 (ip), vehicle: saline 100 % of control | dose: 66.0 mg/kg/injection, schedule: Q01DX009 (ip), vehicle: saline 111 % of control | dose: 75.0 mg/kg/injection, schedule: Q01DX009 (ip), vehicle: saline 117 % of control | dose: 100.0 mg/kg/injection, schedule: Q01DX009 (ip), vehicle: saline 100 % of control and 111 % of control | dose: 150.0 mg/kg/injection, schedule: Q01DX009 (ip), vehicle: saline 118 % of control | dose: 200.0 mg/kg/injection, schedule: Q01DX009 (ip), vehicle: saline 86 % of control

CCCN(CCC)CCCOC(=O)c1ccc([N+](=O)[O-])cc1
inactive: dose: 50.0 mg/kg/injection, schedule: Q01DX001 (ip), vehicle: saline 100 % of control | dose: 100.0 mg/kg/injection, schedule: Q01DX001 (ip), vehicle: saline 100 % of control | dose: 200.0 mg/kg/injection, schedule: Q01DX001 (ip), vehicle: saline 100 % of control

NCC(=O)Nc1ccc(O)cc1
inactive: dose: 79.0 mg/kg/injection, schedule: Q04DX003 (ip), vehicle: saline with Tween-80 100 % of control | dose: 118.0 mg/kg/injection, schedule: Q04DX003 (ip), vehicle: saline with Tween-80 104 % of control | dose: 176.0 mg/kg/injection, schedule: Q04DX003 (ip), vehicle: saline with Tween-80 100 % of control | [16] 118 % of control | dose: 600.0 mg/kg/injection, schedule: Q01DX009 (ip), vehicle: saline with Tween-80 90 % of control

CC(=O)Nc1ccc(OCCOC(=O)Nc2c(Cl)cccc2Cl)cc1
inactive: [8] 111 % of control | [9] 100 % of control | [1] 100 % of control

CCCNC(=O)Nc1ccc(C)c(Cl)c1
inactive: [12] 104 % of control | [13] 100 % of control | [14] 95 % of control

Cc1ccc(NC(=O)Nc2ccccc2Cl)cc1Cl
inactive: dose: 100.0 mg/kg/injection, schedule: Q04DX003 (ip), vehicle: saline 104 % of control | dose: 200.0 mg/kg/injection, schedule: Q04DX003 (ip), vehicle: saline 95 % of control | dose: 400.0 mg/kg/injection, schedule: Q04DX003 (ip), vehicle: saline 95 % of control

CCOC(=O)C(C)Oc1ccc(Cl)cc1 (stereo unspecified)
inactive: dose: 25.0 mg/kg/injection, schedule: Q04DX003 (ip), vehicle: water 106 % of control | dose: 50.0 mg/kg/injection, schedule: Q04DX003 (ip), vehicle: water 101 % of control | dose: 100.0 mg/kg/injection, schedule: Q04DX003 (ip), vehicle: water 113 % of control | dose: 200.0 mg/kg/injection, schedule: Q04DX003 (ip), vehicle: water 112 % of control | dose: 400.0 mg/kg/injection, schedule: Q04DX003 (ip), vehicle: water 106 % of control
